Key:
[1] = system: LLY (Streptococcus mitis SK597 lectinolysin, SEQ ID NO:1) on human donor 1 platelets; assay: Block of the lectin-dependent enhancement of LLY pore formation (calcein release from platelets); type: cell-based; conditions: high responder platelets pretreated
Description: Calcein release assay. PRP was diluted 1:100 with HEPES/saline assay buffer (2 mM CaCl2, 1 mM MgCl2, 150 mM NaCl, 10 mM HEPES, pH 7.5) and incubated with 2 μM calcein-acetoxy methyl ester (Molecular Probes, Eugene, Oreg.) for 10 minutes at room temperature as previously described (17). LLY (0.7-2.9 nM) was incubated with the calcein-loaded PRP for 10 minutes at room temperature. Samples were then diluted with HEPES/saline and analyzed on a FACSCalibur flow cytometer (Becton-Dickinson) using settings as described previously (17). Cells losing calcein fluorescence were quantified as a percentage of total platelets.
The EC50 values for LLY- and LLY^CDC-dependent calcein release were calculated using a nonlinear sigmoidal dose-response curve fit of the data (Prism Software).
We hypothesized that enhancement of LLY activity resulted from a glycan-dependent interaction of the lectin domain after monomer bound the cell surface. If correct then preincubating platelets with LLY^Lec should prevent interaction of the lectin domain of LLY with surface glycans and block the enhancement of LLY activity on the highly sensitive donor 1 platelets.

[2] = target: T1, LLY^Lec-Q190C (isolated fucolectin domain of Streptococcus mitis SK597 lectinolysin, SEQ ID NO:3, Q190C = position 154 of the domain) (Streptococcus sp. SK597, UniProt B3UZR3, Q190C); assay: Glycan microarray binding, Alexa-488 labeled LLY^Lec; conditions: for glycan microarray binding at the lowest LLY^Lec concentration: 5.6 nM LLY^Lec, determinants lacking the difucosylated structures
T1 construct: Alexa-488 maleimide on Cys-190; E. coli
Description: FIGS. 7A & 7B. LLY^Lec preferentially binds Le^y and Le^b glycans. Version 2.1 of the printed glycan microarray (Consortium for Functional Glycomics) was probed with Alexa-488 labeled LLY^Lec-Q190C at 560 nM, 56 nM and 5.6 nM. […] The average RFU (from 4-6 analysis with high and low values eliminated) for each bound glycan was determined as described in the Methods and the % CV (100×Standard Deviation÷Average) provides an indication of the precision of each measurement. […] AVG RFU is average relative fluorescence units; SP, spacer arm or linker between glycan and surface of the array; SP0, —CH2CH2NH2; and SP8, CH2CH2CH2NH2. Circles; galactose, squares; GalNac, triangles, fucose, squares; GlcNAc.
Chemical modification of LLY and its derivatives with sulfhydryl-specific fluorescent probes. Cysteine derivatives of LLY and LLY^Lec (i.e., the 162 amino acid fucolectin domain) were modified with Alexa Fluor 488 C5-maleimide (Invitrogen) via the sulfhydryl group as previously described (12). Modified protein stocks were adjusted to 10% (v/v) sterile glycerol, quick frozen in liquid nitrogen, and stored at −80° C. Proteins were labeled at an efficiency of 75% or greater.
Glycan microarray binding assay and scanning. Glycan microarrays were prepared as described previously (33,37) and obtained from the NIH/NIGMS-funded Consortium for Functional Glycomics (see http://www.functionalglycomics.org/static/index.shtml). Before assay, the slides were rehydrated for 5 minutes in TSM buffer (20 mM Tris-HCL, 150 mM sodium chloride (NaCl), 0.2 mM calcium chloride (CaCl2) and 0.2 mM magnesium chloride (MgCl2). Alexa-488-labeled LLY^Q190C and its derivatives were used in the binding assay (560-640 nM), and the bound proteins were detected directly via the fluorescent tag.
The slides were scanned with a Perkin Elmer ProScanarray MicroArray Scanner (Waltham, Mass.) using an excitation wavelength of 488 nm. ImaGene software (BioDiscovery, Inc., El Segundo, Calif.) was used to quantify fluorescence. The data are reported as average relative fluorescence units (RFU) from 4 of the 6 replicates (after removal of the highest and lowest values) for each glycan represented on the array. Versions 2.1 and 3.0 of the printed array were used in these studies and a complete list of glycans printed on these arrays can be found at the Functional Glycomics Gateway website:
Purified LLY^Lec-Q190C was fluorescently labeled with Alexa-488 and used to probe the glycan microarray. […] The AAA glycan binding site contains three key residues that make polar contacts with the fucose molecule. The Nε of His-52 contacts O-5 of the fucose ring whereas the guanidinium groups of Arg-79 and Arg-86 make contact with 3-OH and 4-OH ring hydroxyls of fucose (10). […]

Compound	effect of pretreatment on the high/low responder EC50 difference [1]	glycan microarray binding at the lowest LLY^Lec concentration [2]	glycan microarray ligand preference ([2]; printed glycan microarray, overall conclusion)
C[C@@H]1OC(O)[C@@H](O)[C@H](O)[C@@H]1O (stereo partly drawn) [fucose, L-fucose]	This difference was abolished	–	–
Fucα1-2Galβ [H-antigen]	–	binds weakly or not at all	weaker ligand
GaNAclα1-3[Fucα1-2]Galβ1-3/4R [blood group A]	–	binds weakly or not at all	–
Galα1-3[Fucα1-2]Galβ1-3/4R [blood group B]	–	binds weakly or not at all	–

Source: patent US20110052494A1, “H-ANTIGEN BINDING POLYPEPTIDES AND METHODS OF USE” (priority 2008, published 2011)
